PMC6001238, “Iterative Chemical Engineering of Vancomycin Leads to Novel Vancomycin Analogs With a High in Vitro Therapeutic Index” (Frontiers in Microbiology, 2018)
Values after ≈ are worked out from the molar mass of the structure shown. Read-outs that look alike come from different tables or passages of the source.

Assays:
VE 152 (VanB) = experiment: MIC, VanB-type VRE strain VE 152; assay type: cell-based, Enterococcus; details: Enterococcus; VE 152, VanB; read-out: MIC
In short: (§1)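 CLSI broth microdilution; water and uninoculated-broth controls; one arm supplemented with vancomycin, final 10 μM, given with analogue or control antibiotic.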

E. faecalis VRE 29 = experiment: MIC, broth microdilution, vancomycin-resistant E. faecalis VRE 29 (VanA); assay type: cell-based, Enterococcus faecalis
In short: as §1

S. aureus VISA/HIP5827 = experiment: MIC, broth microdilution, vancomycin-intermediate S. aureus VISA HIP5827; assay type: cell-based, Staphylococcus aureus
In short: as §1

[1] = tested on: Clostridium difficile AIU ribotype 027; experiment: MIC, plate drop assay, C. difficile AIU ribotype 027; assay type: cell-based
In short: (§2)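 Lawns of each strain were made in soft BHI agar (0.4%) supplemented with CaCl2⋅2H2O and MgCl2⋅6H2O. Twofold compound dilutions (10 μL) were spotted, air-dried and incubated overnight at 37°C anaerobically; MIC read as cleared spots, in triplicate with water as negative control.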

S. aureus VRSA = experiment: MIC, broth microdilution, vancomycin-resistant S. aureus (VRSA); assay type: cell-based, Staphylococcus aureus
In short: as §1

[2] = tested on: 24 clinical MRSA isolates; experiment: MIC against a set of 24 clinical MRSA isolates (range, MIC50, TI); assay type: cell-based, Staphylococcus aureus
In short: as §1

MRSA KS89 = experiment: MIC, broth microdilution, MRSA KS89; assay type: cell-based, Staphylococcus aureus
In short: as §1

[3] = tested on: L1210, CEM and HeLa cell lines; experiment: Cytostatic activity, average or summary over L1210, CEM and HeLa; assay type: cell-based
In short: (§3)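 Test compounds, serially diluted, received an equal volume of cell suspension at 300,000–500,000 cells/mL. After 37°C incubation (2 days for L1210, 3 for CEM, 4 for HeLa), cells were enumerated by Coulter counting and 50%-inhibitory concentrations calculated per cell type.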

VE 148 (VanB) = experiment: MIC, VanB-type VRE strain VE 148; assay type: cell-based, Enterococcus; details: Enterococcus; VE 148, VanB; read-out: MIC
In short: as §1

[4] = tested on: Clostridium difficile ATJ ribotype 014/20; experiment: MIC, plate drop assay, C. difficile ATJ ribotype 014/20; assay type: cell-based
In short: as §2

VE 157 (VanB) = experiment: MIC, VanB-type VRE strain VE 157; assay type: cell-based, Enterococcus; details: Enterococcus; VE 157, VanB; read-out: MIC
In short: as §1

33 clinical VRE isolates = experiment: MIC against a set of 33 clinical VRE isolates (range, MIC50, TI); assay type: cell-based, Enterococcus faecalis
In short: as §1

MRSA KS2 = experiment: MIC, broth microdilution, MRSA KS2; assay type: cell-based, Staphylococcus aureus
In short: as §1

E. faecalis VSE 1 = experiment: MIC, broth microdilution, vancomycin-sensitive E. faecalis (VSE 1); assay type: cell-based, Enterococcus faecalis
In short: as §1

VE 82 (VanC1) = experiment: MIC, VanC1-type VRE strain VE 82; assay type: cell-based, Enterococcus gallinarum; details: Enterococcus gallinarum; VE 82, VanC1; read-out: MIC
In short: as §1

[5] = tested on: Murine leukemia (L1210) cells; experiment: Cytostatic activity, L1210 cell proliferation; assay type: cell-based; details: Mus musculus, L1210, 48 h; mean ± SD of three experiments; highest concentration tested 250 µM; 2 days; read-out: Toxicity (IC50) L1210
In short: as §3

E. faecalis VRE 37 = experiment: MIC, broth microdilution, vancomycin-resistant E. faecalis VRE 37 (VanA); assay type: cell-based, Enterococcus faecalis
In short: as §1

VE 149 (VanB) = experiment: MIC, VanB-type VRE strain VE 149; assay type: cell-based, Enterococcus; details: Enterococcus; VE 149, VanB; read-out: MIC
In short: as §1

[6] = tested on: human cervix carcinoma (HeLa) cells; experiment: Cytostatic activity, HeLa cell proliferation; assay type: cell-based; details: Homo sapiens, HeLa, 96 h; mean ± SD of three experiments; highest concentration tested 250 µM; 4 days; read-out: Toxicity (IC50) HeLa
In short: as §3

[7] = tested on: S. aureus VSSA (ATCC 6538); experiment: MIC, broth microdilution, vancomycin-sensitive S. aureus (VSSA/MSSA, ATCC 6538); assay type: cell-based, Staphylococcus aureus
In short: as §1

VE 150 (VanB) = experiment: MIC, VanB-type VRE strain VE 150; assay type: cell-based, Enterococcus; details: Enterococcus; VE 150, VanB; read-out: MIC
In short: as §1

E. faecalis VRE 53 = experiment: MIC, broth microdilution, vancomycin-resistant E. faecalis VRE 53 (VanA); assay type: cell-based, Enterococcus faecalis
In short: as §1

E. faecalis VRE 6 = experiment: MIC, broth microdilution, vancomycin-resistant E. faecalis VRE 6 (VanA); assay type: cell-based, Enterococcus faecalis
In short: as §1

MRSA KS6 = experiment: MIC, broth microdilution, MRSA KS6; assay type: cell-based, Staphylococcus aureus; details: Staphylococcus aureus MRSA KS6; read-out: MIC
In short: as §1

MRSA KS1 = experiment: MIC, broth microdilution, MRSA KS1; assay type: cell-based, Staphylococcus aureus
In short: as §1

MRSA = experiment: Minimum bactericidal concentration against MRSA; assay type: cell-based, Staphylococcus aureus
Method: Plates were incubated overnight at 37°C and colony growth was inspected.

[8] = tested on: human T-lymphocyte (CEM) cells; experiment: Cytostatic activity, CEM cell proliferation; assay type: cell-based; details: Homo sapiens, CCRF-CEM, 72 h; mean ± SD of three experiments; highest concentration tested 250 µM; 3 days; read-out: Toxicity (IC50) CEM
In short: as §3

CCCCCCCCCC(=O)N[C@@H](Cc1c[nH]c2ccccc12)C(=O)N[C@H](CC(N)=O)C(=O)N[C@@H](CC(=O)O)C(=O)N[C@@H]1C(=O)NCC(=O)N[C@@H](CCCN)C(=O)N[C@@H](CC(=O)O)C(=O)N[C@H](C)C(=O)N[C@@H](CC(=O)O)C(=O)NCC(=O)N[C@H](CO)C(=O)N[C@@H]([C@H](C)CC(=O)O)C(=O)N[C@@H](CC(=O)c2ccccc2N)C(=O)O[C@@H]1C [Daptomycin, reference compound]
MIC (VE 152 (VanB)): 25 µM (≈ 40.5 µg/mL)
MIC (E. faecalis VRE 29; Enterococcus faecalis VRE 29 (vancomycin-resistant), read-out: MIC): 50 µM (≈ 81 µg/mL)
MIC-fold improvement vs. vancomycin (E. faecalis VRE 29; VRE 29, ratio of MIC of vancomycin and MIC of analogue): 8
MIC (S. aureus VISA/HIP5827; Staphylococcus aureus VISA/HIP5827, read-out: MIC): > 12.5 µM
MIC-fold improvement vs. vancomycin (S. aureus VISA/HIP5827; VISA/HIP5827, ratio of MIC of vancomycin and MIC of analogue): <0.5
MIC-fold improvement vs. vancomycin ([1]; C. difficile AIU ribotype 027): 29
MIC ([1]; Clostridioides difficile, C. difficile AIU ribotype 027, plate drop assay): 1.56 µM (≈ 2.53 µg/mL)
MIC (S. aureus VRSA; Staphylococcus aureus VRSA, read-out: MIC): 12.5 µM (≈ 20.3 µg/mL)
MIC-fold improvement vs. vancomycin (S. aureus VRSA; VRSA, ratio of MIC of vancomycin and MIC of analogue): 8
MIC Range ([2]; 24 clinical MRSA isolates): 0.78 to 12.5 µM
MIC50 ([2]; Staphylococcus aureus, median MIC, 24 clinical MRSA isolates, read-out: MIC50): 0.78 µM (≈ 1.26 µg/mL)
TI (IC50/MIC50) ([2]; in vitro therapeutic index, MRSA): 321
MIC-fold improvement vs. vancomycin (MRSA KS89; MRSA KS8 (head; KS89 in title), ratio of MIC of vancomycin and MIC of analogue): 0.1
MIC (MRSA KS89; Staphylococcus aureus MRSA KS8 (head; KS89 in title), read-out: MIC): 6.25 µM (≈ 10.1 µg/mL)
IC50 ([3]; average IC50 used for TI in Table S5, >250 entered as 250, read-out: IC50): 250 µM
IC50 ([3]; average of L1210, CEM and HeLa, read-out: Toxicity (IC50) Average): > 250 µM
MIC (VE 148 (VanB)): 25 µM (≈ 40.5 µg/mL)
MIC-fold improvement vs. vancomycin ([4]; C. difficile ATJ ribotype 014/20): 22
MIC ([4]; Clostridioides difficile, C. difficile ATJ ribotype 014/20, plate drop assay): 1.56 µM (≈ 2.53 µg/mL)
MIC (VE 157 (VanB)): 12.5 µM (≈ 20.3 µg/mL)
MIC Range (33 clinical VRE isolates; 33 clinical VRE isolates): 3.13 to 12.5 µM
MIC50 (33 clinical VRE isolates; Enterococcus, median MIC, 33 clinical VRE isolates, read-out: MIC50): 6.25 µM (≈ 10.1 µg/mL)
TI (IC50/MIC50) (33 clinical VRE isolates; in vitro therapeutic index, VRE): 40
MIC-fold improvement vs. vancomycin (MRSA KS2; MRSA KS2, ratio of MIC of vancomycin and MIC of analogue): 0.05
MIC (MRSA KS2; Staphylococcus aureus MRSA KS2, read-out: MIC): 12.5 µM (≈ 20.3 µg/mL)
MIC (E. faecalis VSE 1; VSE1, Enterococcus faecalis VSE 1 (vancomycin-sensitive), read-out: MIC): > 6.25 µM
MIC-fold improvement vs. vancomycin (E. faecalis VSE 1; VSE 1, ratio of MIC of vancomycin and MIC of analogue): <0.2
MIC (VE 82 (VanC1)): 12.5 µM (≈ 20.3 µg/mL)
IC50 [5]: > 250 µM
MIC (E. faecalis VRE 37; Enterococcus faecalis VRE 37 (vancomycin-resistant), read-out: MIC): 50 µM (≈ 81 µg/mL)
MIC-fold improvement vs. vancomycin (E. faecalis VRE 37; VRE 37, ratio of MIC of vancomycin and MIC of analogue): 8
MIC (VE 149 (VanB)): 25 µM (≈ 40.5 µg/mL)
IC50 [6]: > 250 µM
MIC ([7]; ATCC6538, Staphylococcus aureus VSSA, read-out: MIC): > 6.25 µM
MIC-fold improvement vs. vancomycin ([7]; VSSA, ratio of MIC of vancomycin and MIC of analogue): <0.1
MIC (VE 150 (VanB)): 25 µM (≈ 40.5 µg/mL)
MIC (E. faecalis VRE 53; Enterococcus faecalis VRE 53 (vancomycin-resistant), read-out: MIC): 50 µM (≈ 81 µg/mL)
MIC-fold improvement vs. vancomycin (E. faecalis VRE 53; VRE 53, ratio of MIC of vancomycin and MIC of analogue): 8
MIC (E. faecalis VRE 6; Enterococcus faecalis VRE 6 (vancomycin-resistant), read-out: MIC): 6.25 µM (≈ 10.1 µg/mL)
MIC-fold improvement vs. vancomycin (E. faecalis VRE 6; VRE 6, ratio of MIC of vancomycin and MIC of analogue): 32
MIC (MRSA KS6): > 12.5 µM
MIC-fold improvement vs. vancomycin (MRSA KS1; MRSA KS1, ratio of MIC of vancomycin and MIC of analogue): 0.05
MIC (MRSA KS1; Staphylococcus aureus MRSA KS1, read-out: MIC): 12.5 µM (≈ 20.3 µg/mL)
MBC relative to MIC (MRSA): MBC equaling their MIC values
IC50 [8]: > 250 µM
